Test [1] concerns pre-existing GI polyps in Lkb1^+/− mice.
Description: Mouse Colony Maintenance, Treatment Regimen and Polyp Measurement. Lkb1^+/+ and Lkb1^+/− mice, maintained on an FVB/N genetic background, were monitored for the development of gastrointestinal polyps. Mice with clinical signs of disease were euthanized and necropsied. The groups were vehicle treated or RAPA treated mice. […] Polyps were scored and total polyp burden was measured).
After two months of treatment, polyp size and number in each mouse were quantitated.
The subject of test [2] is PTEN-deficient glioblastomas and metastatic renal cell carcinomas. Conditions: patients with PTEN-deficient glioblastomas and metastatic renal cell carcinomas; cited from earlier work.

These results are taken from patent US20120189544A1, “GASTROINTESTINAL DISEASE OR DISORDER IMAGING AND TREATMENT” (SALK INSTITUTE FOR BIOLOGICAL STUDIES, priority 2009, published 2012).

Turning to `CO[C@H]1C[C@@H]2CC[C@@H](C)[C@@](O)(O2)C(=O)C(=O)N2CCCC[C@H]2C(=O)O[C@H]([C@H](C)C[C@@H]2CC[C@@H](O)[C@H](OC)C2)CC(=O)[C@H](C)/C=C(\C)[C@@H](O)[C@@H](OC)C(=O)[C@H](C)C[C@H](C)/C=C/C=C/C=C/1C` [rapamycin], the “reduction in the overall mass of polyps” value in test [1] (Lkb1+/− mice treated vs untreated with rapamycin, two months) was 80%. Besides, in test [1] (Lkb1+/− mice, 10 mg/kg rapamycin i.p., two months, n=10, VEH 9.6±5.5, p=0.00026), the “mean polyp burden (total polyp burden)” value is given as 2.0±1.2. In addition, in test [1] (Lkb1+/− mice, n=10, VEH 4.4±0.8, p<0.0001), the mean polyp size is on record as 1.2±0.9. This compound also gave a mean polyp number in test [1] (Lkb1+/− mice, visible polyps between 1 and 5 mm scored, n=10, VEH 5.3±1.8, p=0.00022) of 2.8±1.4.

Turning to `CO[C@H]1C[C@@H]2CC[C@@H](C)[C@@](O)(O2)C(=O)C(=O)N2CCCC[C@H]2C(=O)O[C@H]([C@H](C)C[C@@H]2CC[C@@H](OC(=O)C(C)(CO)CO)[C@H](OC)C2)CC(=O)[C@H](C)/C=C(\C)[C@@H](O)[C@@H](OC)C(=O)[C@H](C)C[C@H](C)/C=C/C=C/C=C/1C` [Temsirolimus, temsirolimus], the clinical outcome in test [2] is on record as “palliative success”.
